Measured values: US7122624B2, “Parathyroid hormone receptor ligands” (The United States of America as represented by the …, priority 1999, dated 2006)
Where two headings read alike, the source gives them in different places. Non-standard residues stand in square brackets, D forms with d. Residues, ends and D or L forms follow the SMILES beside them. Nle = CCCC[C@H](N)C(=O)O

Tests used:
PTH2 receptor [1] = target: T1, PTH2 receptor (Homo sapiens, UniProt P49190); experiment: Radioligand displacement binding to HEK293 cell membranes expressing the human PTH2 receptor
Procedure: (§5) In these assays the binding of a range of concentrations of an unlabeled ligand was measured by displacement of radioligand binding. Three methods were employed. An assay employing centrifugation to separate bound and free radioligand was used to accurately measure ligand binding parameters. A higher-throughput method employing rapid filtration was used to generate comparative ligand binding data. […] In these assays a very low concentration of radioligand was used so that the IC50 closely approximates the ligand affinity.
(§6) In the centrifugation assay cell membranes (45–50 μg), radioligand (100,000–300,000 cpm) and unlabeled ligand were incubated in a final volume of 1 ml assay buffer (20 mM HEPES, 100 mM NaCl, 1 mM EDTA, 3 mM MgSO4 pH 7.5, supplemented with 0.3% non-fat dried milk powder, 100 μM AEBSF and 1 μg/ml bacitracin) for two hours at 21° C. Membranes were collected at 18,000×g, the surface of the pellet gently washed and the radioactivity counted as described in Examples. […] Less than 20% of the total radioligand added was bound within the membrane pellet. […] (Greater than 50% of the total radioligand was bound if all the membrane in the incubation was from transfected cells).
(§7) For inhibition of radioligand binding, y is the cpm bound at a given unlabeled ligand concentration, min is non-specific binding (measured in the presence of a high concentration of the unlabeled version of the radiolabeled ligand) and max is total binding (measured in the absence of unlabeled ligand).
(§8) Binding was measured in the presence of 10 μM GTPγS to minimize complications arising from receptor-G-protein coupling, such as pseudo-irreversible binding of the agonist radioligand.
(§9) A similar assay design was used for the PTH1 and PTH2 receptor, in which radiolabeled agonist binding was displaced by the unlabeled ligands in the presence of 10 μM GTPγS. Briefly, cell membranes (45 μg), radioligand (50,000 cpm) and unlabeled ligand were incubated in a final volume of 1 ml assay buffer (20 mM HEPES, 100 mM NaCl, 1 mM EDTA, 3 mM MgSO4 pH 7.5, supplemented with 0.3% non-fat dried milk powder, 100 μM (4-(2-aminoethyl))-benzenesulfonylflouride (AEBSF), 1 μg/ml bacitracin and 10 μM GTPγS) for two hours at 21° C. Membranes were collected at 18,000×g, the surface of the pellet gently washed and the radioactivity counted as described in Examples. […] To prevent greater than 20% of the total radioligand added from binding to the membranes, 15–20 μg of membranes from transfected cells were used, made up to 45 μg with membranes from non-transfected cells.

human PTH1 receptor [2] = target: T2, human PTH1 receptor (Homo sapiens, UniProt Q03431); experiment: cAMP accumulation in COS-7 cells transiently expressing the human PTH1 receptor; conditions: 20% human plasma
T2 sequence (Q03431 27-593): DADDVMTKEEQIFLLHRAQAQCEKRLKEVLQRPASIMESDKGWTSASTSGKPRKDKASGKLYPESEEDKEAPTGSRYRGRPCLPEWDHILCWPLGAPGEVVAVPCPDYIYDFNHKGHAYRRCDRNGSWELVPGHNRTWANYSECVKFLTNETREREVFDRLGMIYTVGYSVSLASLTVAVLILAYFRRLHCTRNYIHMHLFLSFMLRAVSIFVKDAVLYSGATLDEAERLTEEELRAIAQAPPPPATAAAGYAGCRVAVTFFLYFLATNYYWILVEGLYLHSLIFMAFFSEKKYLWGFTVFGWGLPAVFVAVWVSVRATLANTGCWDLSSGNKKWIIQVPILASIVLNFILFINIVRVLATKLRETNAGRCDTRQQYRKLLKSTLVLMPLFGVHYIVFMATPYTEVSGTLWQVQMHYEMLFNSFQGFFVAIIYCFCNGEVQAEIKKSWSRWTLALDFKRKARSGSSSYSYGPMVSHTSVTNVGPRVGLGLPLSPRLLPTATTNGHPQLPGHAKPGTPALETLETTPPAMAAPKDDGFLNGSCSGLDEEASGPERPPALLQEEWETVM
Procedure: COS-7 cells were grown as previously described in Clark et al. For cAMP accumulation assays COS-7 cells were transfected as previously described in Clark et al. except that transfections were performed in 10 cm tissue culture dishes using 10 μg of plasmid DNA. The cells were transferred following trypsinization to 96-well plates at a density of 50,000 cells/well the following day. Cells were used for cAMP accumulation assays three days after transfection.
Ligand-stimulated accumulation of cAMP was measured as described in Examples, using a radioimmunoassay to quantify cAMP (Clark et al., supra).
Slightly different procedures were used depending on the experimental paradigm. […] This buffer was removed and replaced with 40 μl fresh buffer. Test agents were added in a volume of 10 μl and the cells incubated for an additional 40 min at 37° C. The assay was then terminated by the addition of 50 μl 0.1 N HCl, 0.1 mM CaCl2. […] After a further 40 minutes at 37° C. the assay was terminated as described above. […] The buffer was removed and the following solutions added sequentially: 30 μl buffer containing plasma, 10 μl antagonist in buffer and 10 μl rPTH(1–34) in buffer. The cells were incubated at 37° C. for 40 minutes prior to assay termination. Human plasma was prepared by addition of EDTA to whole blood at a final concentration of 10 mM followed by centrifugation at 1,000×g for 10 minutes. The plasma supernatant was collected and stored in aliquots at −80° C. before use. cAMP was quantified using a RIA as previously described (Clark et al., supra).
For cAMP accumulation data y is the amount of cAMP produced at a given peptide concentration, min is the cAMP level in the absence of ligand, max is the maximum level produced and K is the log EC50.
The pA2 was subsequently converted to a pKB value by fixing n at unity in the linear regression analysis.

rat PTH2 receptor = target: T3, rat PTH2 receptor (Rattus norvegicus, UniProt P70555); experiment: cAMP accumulation in COS-7 cells transiently expressing the rat PTH2 receptor; format: cell-based
T3 construct: expressed in transfected cells; host or cells: COS-7 (transient)
Procedure: To express rat PTH2 receptor in cell culture, a rat hypothalamus cDNA library was prepared in the vector CDM7 amp as described. […] A clone was isolated from a single positive pool by colony hybridization using the same ^32P labeled probe.
(§1) Cell culture supplies were obtained from Life Technologies (Frederick, Md.) except for fetal bovine serum which was from Sigma (St. Louis, Mo.).
(§2) The constructs containing the cDNA sequences of the human PTH2 receptor and β-galactosidase have been previously described.
(§3) All peptides were purchased from either Bachem (Torrance, Calif.) or Peninsula Laboratories (Belmont, Calif.). The letters ‘b,’ ‘r’ and ‘h’ designate the peptide sequence as bovine, rat and human, respectively. […] [α-^32P]dCTP was purchased from ICN Biomedicals (Costa Mesa, Calif.). Bovine hypothalamic extract was prepared by acid extraction, gel-filtration and reverse-phase HPLC as previously described. […] Antagonist inhibitory potency was examined by measuring the concentration-dependence of rPTH(1–34)-stimulated cAMP accumulation in the presence and absence of antagonist.
(§4) Statistical comparison of two sample means was evaluated using the two-tailed Student's t-test. […] Antagonist inhibitory potency was quantified using the pA2, value, the negative logarithm of the concentration of antagonist that produces a two-fold decrease of agonist EC50. This was calculated using the following equation: pA2=((EC50/EC50′)−1)−log [antagonist]

PTH2 receptor [3] = target: T1, PTH2 receptor; experiment: cAMP accumulation in COS-7 cells transiently expressing the human PTH2 receptor; format: cell-based; set-up: expressed in transfected cells; host or cells: COS-7 (transient)
From the text: as §1, §2, §3, §4

human PTH1 receptor [4] = target: T2, human PTH1 receptor; experiment: Radioligand displacement binding to HEK293 cell membranes expressing the human PTH1 receptor; conditions: presence of 10 μM GTPγS
Procedure: as §5, §6, §7, §8, §9

[5] = 1 μM antagonist against rPTH(1–34)-stimulated cAMP
[6] = rat receptor response relative to human PTH2 receptor response measured in parallel

T3 sequence (P70555 25-546): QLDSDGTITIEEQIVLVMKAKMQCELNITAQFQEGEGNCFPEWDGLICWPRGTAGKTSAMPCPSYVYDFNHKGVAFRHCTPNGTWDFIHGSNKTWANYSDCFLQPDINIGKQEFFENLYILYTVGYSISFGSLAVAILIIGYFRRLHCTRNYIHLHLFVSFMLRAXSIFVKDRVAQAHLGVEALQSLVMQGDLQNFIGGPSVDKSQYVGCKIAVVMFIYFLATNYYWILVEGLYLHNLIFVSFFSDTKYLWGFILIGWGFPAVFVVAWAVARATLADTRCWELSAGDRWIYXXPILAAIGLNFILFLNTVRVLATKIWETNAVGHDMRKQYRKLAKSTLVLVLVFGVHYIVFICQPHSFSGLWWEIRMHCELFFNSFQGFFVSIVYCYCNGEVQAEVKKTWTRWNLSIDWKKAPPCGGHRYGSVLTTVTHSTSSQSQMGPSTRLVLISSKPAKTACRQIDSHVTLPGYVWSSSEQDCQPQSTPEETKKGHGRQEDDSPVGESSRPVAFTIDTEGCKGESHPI
T1 sequence (P49190 25-550): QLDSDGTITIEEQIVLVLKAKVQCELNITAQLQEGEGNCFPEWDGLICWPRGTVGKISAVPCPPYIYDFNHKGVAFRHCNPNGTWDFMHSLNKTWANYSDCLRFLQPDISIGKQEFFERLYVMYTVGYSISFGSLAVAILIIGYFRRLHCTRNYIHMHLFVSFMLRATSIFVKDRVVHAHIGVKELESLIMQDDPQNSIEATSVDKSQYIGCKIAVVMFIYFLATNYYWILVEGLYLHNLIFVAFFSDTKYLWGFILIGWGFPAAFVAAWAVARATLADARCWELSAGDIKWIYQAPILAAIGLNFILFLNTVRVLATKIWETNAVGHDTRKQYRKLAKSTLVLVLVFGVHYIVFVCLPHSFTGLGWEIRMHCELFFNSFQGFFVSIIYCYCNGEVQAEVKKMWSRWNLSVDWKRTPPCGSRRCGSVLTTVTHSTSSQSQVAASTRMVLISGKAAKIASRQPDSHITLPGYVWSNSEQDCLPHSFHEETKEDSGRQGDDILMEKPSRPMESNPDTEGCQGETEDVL

## CCCC[C@H](NC(=O)[C@H](CCCNC(=N)N)NC(=O)[C@H](CCC(=O)O)NC(=O)[C@@H](NC(=O)[C@H](CO)NC(=O)[C@H](C)NC(=O)[C@H](CC(C)C)NC(=O)[C@H](Cc1c[nH]cn1)NC(=O)[C@H](CCCCN)NC(=O)CNC(=O)[C@H](CC(C)C)NC(=O)[C@H](CC(N)=O)NC(=O)[C@H](Cc1c[nH]cn1)NC(=O)[C@H](CCCC)NC(=O)[C@H](CC(C)C)NC(=O)[C@H](CCC(N)=O)NC(=O)[C@@H](NC(=O)[C@H](CCC(=O)O)NC(=O)[C@H](CO)NC(=O)[C@@H](NC(=O)[C@H](C)N)C(C)C)[C@@H](C)CC)C(C)C)C(=O)N[C@@H](CCC(N)=O)C(=O)N[C@@H](Cc1c[nH]c2ccccc12)C(=O)N[C@@H](CC(C)C)C(=O)N[C@@H](CCCNC(=N)N)C(=O)N[C@@H](CCCCN)C(=O)N[C@@H](CCCCN)C(=O)N[C@@H](CC(C)C)C(=O)N[C@@H](CCC(N)=O)C(=O)N[C@@H](CC(=O)O)C(=O)N[C@H](C(=O)N[C@@H](Cc1c[nH]cn1)C(=O)N[C@@H](CC(N)=O)C(=O)N[C@@H](Cc1ccc(O)cc1)C(N)=O)C(C)C [[Nle^8,21, Tyr^34]rPTH(1–34), [Nle^8,21, Tyr^34]rPTH(1–34) amide]
PTH2 receptor [1]
  IC50: 1.1 nM
PTH2 receptor [1]; centrifugation assay, [125I]TIP39
  shift (increase) of IC50 produced by 10 μM GTPγS: 1.5 fold

## PTHrP(7–34) amide
Human PTH1 receptor [2]
  effect of human plasma on antagonist potency: did not reduce the antagonist potency

## [Nle^8,18, D-Tryp^12, Tyr^34]bPTH(7–34) amide
Rat PTH2 receptor; [5]
  pA2: 6.5±0.2
  pA2 as concentration: 310 nM
Rat PTH2 receptor; 1 μM antagonist, no rPTH(1–34)
  basal cAMP accumulation, % of basal response in the absence of antagonist: 104±11%
PTH2 receptor [3]; [5]
  pA2: 6.5±0.1
  pA2 as concentration: 320 nM
PTH2 receptor [3]; 1 μM antagonist, no rPTH(1–34)
  basal cAMP accumulation, % of basal response in the absence of antagonist: 110±16%

## hPTH(1-34)
Rat PTH2 receptor; intrinsic activity, COS-7
  Emax, % of response of rPTH2r to 3 μM rPTH(1-34): 43 ± 4%
Rat PTH2 receptor; [6]
  Emax, % of response of hPTH2r to 1 μM hPTH(1-34): 22 ± 7%
PTH2 receptor [3]; intrinsic activity, COS-7
  Emax, % of response to 1 μM hPTH(1-34): 100%

## [D-Tryp^12, Tyr^34]bPTH(7–34) amide [[D-Tryp^12, Tyr^34]PTH(7–34)]
Human PTH1 receptor [2]
  effect of human plasma on antagonist potency: did not reduce the antagonist potency
Human PTH1 receptor [4]
  difference of IC50 relative to TIP(7–39): 7.3 fold

## CCCC[C@H](NC(=O)[C@H](CO)NC(=O)[C@H](CO)NC(=O)[C@H](CC(C)C)NC(=O)[C@H](Cc1c[nH]cn1)NC(=O)[C@H](CCCCN)NC(=O)CNC(=O)[C@H](CC(C)C)NC(=O)[C@H](CC(N)=O)NC(=O)[C@H](Cc1c[nH]cn1)NC(=O)[C@H](CCCC)NC(=O)[C@H](Cc1ccccc1)NC(=O)[C@H](CCC(N)=O)NC(=O)[C@@H](NC(=O)[C@H](CCC(=O)O)NC(=O)[C@H](CO)NC(=O)[C@@H](NC(=O)[C@H](C)N)C(C)C)[C@@H](C)CC)C(=O)N[C@@H](CCC(=O)O)C(=O)N[C@@H](CCCNC(=N)N)C(=O)N[C@H](C(=O)N[C@@H](CCC(=O)O)C(=O)N[C@@H](Cc1c[nH]c2ccccc12)C(=O)N[C@@H](CC(C)C)C(=O)N[C@@H](CCCNC(=N)N)C(=O)N[C@@H](CCCCN)C(=O)N[C@@H](CCCCN)C(=O)N[C@@H](CC(C)C)C(=O)N[C@@H](CCC(N)=O)C(=O)N[C@@H](CC(=O)O)C(=O)N[C@H](C(=O)N[C@@H](Cc1c[nH]cn1)C(=O)N[C@@H](CC(N)=O)C(=O)N[C@@H](Cc1ccc(O)cc1)C(N)=O)C(C)C)C(C)C [[Nle^8,18, Tyr^34]bPTH(1-34)] (H-AVSEIQF[Nle]HNLGKHLSS[Nle]ERVEWLRKKLQDVHNY-NH2; N-terminus and C-terminus assumed)
Rat PTH2 receptor; COS-7, read-out: Emax, % of response of hPTH2r to 1 μM hPTH(1-34), rat receptor response relative to human PTH2 receptor response measured in parallel
  Emax: 5 ± 1%
Rat PTH2 receptor; read-out: Emax, % of response of rPTH2r to 3 μM rPTH(1-34), intrinsic activity, COS-7
  Emax: 19 ± 3%
PTH2 receptor [3]; read-out: Emax, % of response to 1 μM hPTH(1-34), intrinsic activity, COS-7
  Emax: 76 ± 7%

## PTHrP(1-34)
Rat PTH2 receptor; intrinsic activity, COS-7
  Emax, % of response of rPTH2r to 3 μM rPTH(1-34): 14 ± 1%
Rat PTH2 receptor; [6]
  Emax, % of response of hPTH2r to 1 μM hPTH(1-34): 7 ± 3%
Rat PTH2 receptor; rat vs human PTH2 receptor EC50
  higher potency for the rat receptor than the human receptor: 14 fold
PTH2 receptor [3]; intrinsic activity, COS-7
  Emax, % of response to 1 μM hPTH(1-34): 25 ± 3%

## hPTH(1-84)
Rat PTH2 receptor; intrinsic activity, COS-7
  Emax, % of response of rPTH2r to 3 μM rPTH(1-34): 42 ± 5%
Rat PTH2 receptor; [6]
  Emax, % of response of hPTH2r to 1 μM hPTH(1-34): 15 ± 4%
PTH2 receptor [3]; intrinsic activity, COS-7
  Emax, % of response to 1 μM hPTH(1-34): 79 ± 1%
